Patent US7932262B2 (Novartis AG, priority 2006, dated 2011)
Read-outs that look alike come from different tables or passages of the source.

System: PC-3 cells
Experiment: Cell Proliferation Assay (Cell Titer Glo), PC-3 cell line
Type: cell-based
Conditions: Homo sapiens, read-out: CPEC50 PC3
Method: IV. Cell Proliferation Assay Protocol:
A2780, PC-3, or PC3MM cells were seeded at 1000 cells/well in 100 μL/well (10.000 cells/mL) growth media in 96-well plates. Cells were allowed to adhere to the bottom of plates for 3-5 hours in a 37° C. 5% CO2 incubator. Compounds were dissolved in DMSO and then transferred to the cell plates. The cells were incubated with the compounds for 3 days in a 37° C. 5% CO2 incubator. The growth medium containing the compounds was then removed from the cells and fresh medium was added, followed by 100 μL of Cell Titer Glo assay reagent (Promega). This mixture was shaken for 1 minute and then incubated without shaking for 10 minutes. Activity determinations for the compounds were made by detection on a Trilux Instrument.
V. Cell Proliferation Assay Protocol: PC-3 Cell Line
PC-3 cells were seeded at 1000 cells/well in 100 μL/well (10.000 cells/mL) along with growth media into black-walled, clear bottom 96-well plates. The cells were allowed to adhere to the bottom of the plate for 3-5 hours in a 37° C. 5% CO2 incubator.
Test compounds were diluted to 500× in DMSO. The DMSO solutions of six of the compounds were transferred to the cells in the 96 well round bottom plate, column 2, row B-F. A 1:3 serial dilution of each compound was carried out. The serial dilution comprised adding 20 μL of DMSO to the wells containing the compounds and doing a 1:3 dilution across the plate from columns 2-10. Column 11 contained only DMSO. The serial dilution was carried out using a BioMek 2000 protocol “CP Serial Dilution using 250 μL tips” or “Proliferation Compound” (if using 20 μL tips).
To a 96 deep well block, columns 2-11 rows B-F, was transferred 500 μL of growth medium. Using the FX protocol “HH_CellAssay—2 μL to 500 μL”, 2 μL of compound from each cell of the compound plate was transferred to the corresponding cell in the 96 deep well block containing 500 μL of growth medium. The instrument was programmed to dilute the compound in growth medium and then transfer 100 μL of that mixture to cell plates containing cells. The cell plates, to which test compounds had been added, were incubated for 3 days at 37° C. Following the incubation, the medium was removed and replaced with fresh medium. Cell Titer Glo (100 μL) was added to each well and the plate was shaken for 1 minute and then incubated without shaking for 10 minutes. The plates were then read using a Trilux instrument.

[1] = PC-3, Cell Proliferation Assay, PC3

SMILES	EC50 (PC-3, PC3 cells) [µM]	EC50 [1] [µM]
COc1cc(Nc2ncc3ccc(OC4CCNCC4)cc3n2)cc(OC)c1 [Compound 957, N-(3,5-dimethoxyphenyl)-7-(piperidin-4-yloxy)quinazolin-2-amine]	< 5	
CC(C)N1CCC(Oc2cccc3cnc(Nc4cccc(CC(N)=O)c4)nc23)CC1 [Compound 1002, 2-(3-(8-(1-isopropylpiperidin-4-yloxy)quinazolin-2-ylamino)phenyl)acetamide]	5 to 10	
Brc1ccc(OC2CCNCC2)c2nc(Nc3ccc(N4CCNCC4)cc3)ncc12 [Compound 372, 5-bromo-N-(4-(piperazin-1-yl)phenyl)-8-(piperidin-4-yloxy)quinazolin-2-amine]		< 5
NS(=O)(=O)c1ccc(Nc2ncc3cc(C(=O)Nc4cccc(NC(=O)c5ccccc5)c4)ccc3n2)cc1 [Compound 578, N-(3-benzamidophenyl)-2-(4-sulfamoylphenylamino)quinazoline-6-carboxamide]		< 5
O=C(NC1CCNCC1)c1ccc(Nc2ncc3c(Br)ccc(OC4CCNCC4)c3n2)cc1 [Compound 370, 4-(5-bromo-8-(piperidin-4-yloxy)quinazolin-2-ylamino)-N-(piperidin-4-yl)benzamide]		5 to 10
CC(C)N1CCC(Nc2ncc3cccc(O)c3n2)CC1 [Compound 543, 2-(1-isopropylpiperidin-4-ylamino)quinazolin-8-ol]		5 to 10
CC(C)N1CCC(Oc2cccc3cnc(NS(=O)(=O)c4ccccc4)nc23)CC1 [Compound 542, N-(8-(1-isopropylpiperidin-4-yloxy)quinazolin-2-yl)benzenesulfonamide]		5 to 10
CC(=O)Nc1ncc2cccc(OC3CCN(C(C)C)CC3)c2n1 [Compound 544, N-(8-(1-isopropylpiperidin-4-yloxy)quinazolin-2-yl)acetamide]		5 to 10
C#Cc1cc(OC2CCN(C(C)C)CC2)c2nc(Nc3ccc(S(N)(=O)=O)cc3)ncc2c1 [Compound 1015, 4-(6-ethynyl-8-(1-isopropylpiperidin-4-yloxy)quinazolin-2-ylamino)benzenesulfonamide]	< 5	
Nc1ncc(-c2ccc3cnc(Nc4ccc(S(N)(=O)=O)cc4)nc3c2OC2CCNCC2)cc1C(F)(F)F [Compound 933, 4-(7-(6-amino-5-(trifluoromethyl)pyridin-3-yl)-8-(piperidin-4-yloxy)quinazolin-2-ylamino)benzenesulfonamide]	< 5	
Fc1ccc(Nc2ncc3ccc(OC4CCNCC4)cc3n2)cc1 [Compound 988, N-(4-fluorophenyl)-7-(piperidin-4-yloxy)quinazolin-2-amine]	< 5	
CC(=O)Nc1ccc(Nc2ncc3cccc(OC4CCN(C(C)C)CC4)c3n2)cc1 [Compound 969]	< 5	
CC(=O)Nc1cccc(Nc2ncc3cccc(OC4CCN(C(C)C)CC4)c3n2)c1 [Compound 1007, N-(3-(8-(1-isopropylpiperidin-4-yloxy)quinazolin-2-ylamino)phenyl)acetamide]	< 5	
CC(C)NS(=O)(=O)c1ccc(Nc2ncc3ccc(OC4CCN(C(C)C)CC4)cc3n2)cc1 [Compound 961, N-isopropyl-4-(7-(1-isopropylpiperidin-4-yloxy)quinazolin-2-ylamino)benzenesulfonamide]	< 5	
CC(C)N1CCC(Oc2cccc3cnc(NC(=O)c4ccccc4)nc23)CC1 [Compound 541, N-(8-(1-isopropylpiperidin-4-yloxy)quinazolin-2-yl)benzamide]		5 to 10
CNS(=O)(=O)Cc1ccc(Nc2ncc3cccc(OC4CCN(C(C)C)CC4)c3n2)cc1 [Compound 1008, 1-(4-(8-(1-isopropylpiperidin-4-yloxy)quinazolin-2-ylamino)phenyl)-N-methylmethanesulfonamide]	< 5	
CC(C)N1CCC(Oc2ccc3cnc(Nc4nc5ccccc5s4)nc3c2)CC1 [Compound 324, N-(7-(1-isopropylpiperidin-4-yloxy)quinazolin-2-yl)benzo[d]thiazol-2-amine]		< 5

SMILES	EC50 (PC-3, PC3 cells) [µM]	EC50 [1] [µM]
CC(C)N1CCC(Oc2cccc3cnc(Nc4ccc(Cl)cc4)nc23)CC1 [Compound 1010, N-(4-chlorophenyl)-8-(1-isopropylpiperidin-4-yloxy)quinazolin-2-amine]	< 5	
CC(C)N1CCC(Oc2ccc3cnc(Nc4ccc(N)c(Cl)c4)nc3c2)CC1 [Compound 1013, 3-chloro-N1-(7-(1-isopropylpiperidin-4-yloxy)quinazolin-2-yl)benzene-1,4-diamine]	5 to 10	
CC(C)N1CCC(Oc2ccc3cnc(Nc4ccc(F)cc4)nc3c2)CC1 [Compound 989, N-(4-fluorophenyl)-7-(1-isopropylpiperidin-4-yloxy)quinazolin-2-amine]	5 to 10	
CC(C)N1CCC(Oc2cccc3cnc(Nc4ccc(F)cc4)nc23)CC1 [Compound 1009, N-(4-fluorophenyl)-8-(1-isopropylpiperidin-4-yloxy)quinazolin-2-amine]	5 to 10	
CC(C)N1CCC(Oc2cccc3cnc(Nc4cccc(N5CCOCC5)c4)nc23)CC1 [Compound 1006, 8-(1-isopropylpiperidin-4-yloxy)-N-(3-morpholinophenyl)quinazolin-2-amine]	5 to 10	
CC(C)N1CCC(Oc2cccc3cnc(Nc4ccc(N5CCOCC5)cc4)nc23)CC1 [Compound 968, 8-(1-isopropylpiperidin-4-yloxy)-N-(4-morpholinophenyl)quinazolin-2-amine]	< 5	
CNC(=O)Cc1cccc(Nc2ncc3cccc(OC4CCN(C(C)C)CC4)c3n2)c1 [Compound 1003, 2-(3-(8-(1-isopropylpiperidin-4-yloxy)quinazolin-2-ylamino)phenyl)-N-methylacetamide]	< 5	
COc1cc(C(=O)NC2CCN(C)CC2)ccc1Nc1ncc2c(Br)ccc(OC3CCNCC3)c2n1 [Compound 371, 4-(5-bromo-8-(piperidin-4-yloxy)quinazolin-2-ylamino)-3-methoxy-N-(1-methylpiperidinyl)benzamide]		5 to 10
CC(C)N1CCC(Oc2ccc3cnc(Nc4ccc(Cl)cc4)nc3c2)CC1 [Compound 959, N-(4-chlorophenyl)-7-(1-isopropylpiperidin-4-yloxy)quinazolin-2-amine]	< 5	
CC(C)NC(=O)c1ccc(Nc2ncc3ccc(Oc4ccccc4)cc3n2)cc1 [Compound 591, N-isopropyl-4-(7-phenoxyquinazolin-2-ylamino)benzamide]		< 5
CCN1CCC(Oc2ccc3cnc(Nc4cc(OC)cc(OC)c4)nc3c2)CC1 [Compound 958, N-(3,5-dimethoxyphenyl)-7-(1-ethylpiperidin-4-yloxy)quinazolin-2-amine]	< 5	
CNC(=O)Cc1ccc(Nc2ncc3cccc(OC4CCN(C(C)C)CC4)c3n2)cc1 [Compound 966, 2-(4-(8-(1-isopropylpiperidin-4-yloxy)quinazolin-2-ylamino)phenyl)-N-methylacetamide]	< 5	
Nc1cc(C(F)(F)F)c(-c2ccc3cnc(Nc4ccc(S(N)(=O)=O)cc4)nc3c2OC2CCNCC2)cn1 [Compound 934, 4-(7-(6-amino-4-(trifluoromethyl)pyridin-3-yl)-8-(piperidin-4-yloxy)quinazolin-2-ylamino)benzenesulfonamide]	< 5	
CNc1ncc2ccc(OC3CCN(C(C)C)CC3)cc2n1 [Compound 322, 7-(1-isopropylpiperidin-4-yloxy)-N-methylquinazolin-2-amine]		5 to 10
CC(C)N1CCC(Oc2cccc3cnc(Nc4ccc(NC(=O)N5CCCC5)cc4)nc23)CC1 [Compound 992, N-(4-(8-(1-isopropylpiperidin-4-yloxy)quinazolin-2-ylamino)phenyl)pyrrolidine-1-carboxamide]	< 5	
CC(C)N1CCC(Oc2cccc3cnc(Nc4ccc(C(F)(F)F)cc4)nc23)CC1 [Compound 1011, 8-(1-isopropylpiperidin-4-yloxy)-N-(4-(trifluoromethyl)phenyl)quinazolin-2-amine]	< 5	
Cc1ccc(OC2CCNCC2)c2nc(Nc3ccc(C(=O)NC4CCNCC4)cc3)ncc12 [Compound 376, 4-(5-methyl-8-(piperidin-4-yloxy)quinazolin-2-ylamino)-N-(piperidin-4-yl)benzamide]		5 to 10
